Values joined by “and” are separate entries in the source; they are usually repeats but may differ in a detail not shown here. Equal entries are not always repeated.
What was measured:
[1] = biological target: T1, human Kv1.5 channel (Homo sapiens, UniProt P22460, DEL187-187/DEL55-55/P188G/P307A/R154P); test: Complementation of growth deficiency by Kv1.5 in the presence of activators; assay type: cell-based; details: 2 mM RbCl; culture plates, DPM 5 mM KCl pH 6.5; FIG. 3
T1 construct: expressed in transfected cells; host or cells: Saccharomyces cerevisiae Δtrk1 Δtrk2 Δtok1 (YM195; also Δtrk1 Δtrk2 YM190), vector p423-GPD3
T1 sequence (P22460 with tags, fused parts or gaps DEL55-55/R154P/DEL187-187/P188G/P307A): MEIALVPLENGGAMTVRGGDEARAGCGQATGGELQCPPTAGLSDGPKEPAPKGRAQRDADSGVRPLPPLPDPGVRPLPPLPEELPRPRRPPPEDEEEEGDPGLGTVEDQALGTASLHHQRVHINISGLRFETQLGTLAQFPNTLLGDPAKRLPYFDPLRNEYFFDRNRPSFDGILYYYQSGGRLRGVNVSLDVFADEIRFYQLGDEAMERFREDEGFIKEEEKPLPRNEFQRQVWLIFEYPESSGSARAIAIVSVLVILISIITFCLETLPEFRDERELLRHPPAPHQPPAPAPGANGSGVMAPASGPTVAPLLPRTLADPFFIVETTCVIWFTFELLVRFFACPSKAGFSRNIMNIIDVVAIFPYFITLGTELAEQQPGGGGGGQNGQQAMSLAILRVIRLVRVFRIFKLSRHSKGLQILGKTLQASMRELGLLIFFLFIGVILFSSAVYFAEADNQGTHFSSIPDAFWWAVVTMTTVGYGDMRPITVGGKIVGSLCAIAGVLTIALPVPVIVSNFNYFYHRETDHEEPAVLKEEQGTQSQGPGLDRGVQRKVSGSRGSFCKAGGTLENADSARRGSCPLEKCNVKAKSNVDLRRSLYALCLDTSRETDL
From the text: Each of the strains YM168 (Δtrk1 Δtrk2) and YM182 (Δtrk1 Δtrk2 Δtok1) was transformed with the human potassium channels Kv1.5 ((Fedida, D. et al, 1998); YM190 and YM195) and HERG1 ((Fedida, D. et al., 1998); YM191 and YM196) in p423-GPD3, respectively, as yeast expression vector. gpIRK1 ((Tang, W. et al., 1995); YM193 and YM198) acted as positive control in p423-GPD3 as yeast expression vector (Mumberg, D. et al., 1995; Ronicke, V. et al., 1997). The blank vector p423-GPD3 (YM189 and YM194) acted as negative control. The transformed yeast strains were plated onto (−)HIS/80 mM KCl medium. After this, patches of single colonies were replica-plated onto DPM/5 mM KCl (pH 6.5) to check the capacity of complementing the potassium deficiency.
Kv1.5: Rb^+ extends the hyperpolarization phase. This means that the inwardly directed K^+ flux is more prolonged and increases the possibility of complementing the growth deficiency.
The yeast strains YM 194 and YM 195 were tested in DPM/-HIS/5 mM KCl with 1 mM RbCl for the different growth behavior in liquid medium. To this end, 10 ml of overnight culture were set up in DPM/-HIS/80 mM KCl and, next morning, brought to an OD600 of 0.05 with the relevant media (final volume: 20 ml). The optical density at 600 nm was determined at defined intervals with the aid of a photometer.

[2] = biological target: T2, human potassium channel ROMK2 (Homo sapiens, UniProt P48048); test: Growth of triple mutant Δtrk1Δtrk2Δtok1 expressing ROMK2 (YM256), OD 620 nm; assay type: cell-based; details: 2 mM RbCl
T2 construct: expressed in transfected cells; host or cells: Saccharomyces cerevisiae Δtrk1Δtrk2Δtok1, strain YM256, vector p423GPD
T2 sequence (P48048 1-372 isoform P48048-2): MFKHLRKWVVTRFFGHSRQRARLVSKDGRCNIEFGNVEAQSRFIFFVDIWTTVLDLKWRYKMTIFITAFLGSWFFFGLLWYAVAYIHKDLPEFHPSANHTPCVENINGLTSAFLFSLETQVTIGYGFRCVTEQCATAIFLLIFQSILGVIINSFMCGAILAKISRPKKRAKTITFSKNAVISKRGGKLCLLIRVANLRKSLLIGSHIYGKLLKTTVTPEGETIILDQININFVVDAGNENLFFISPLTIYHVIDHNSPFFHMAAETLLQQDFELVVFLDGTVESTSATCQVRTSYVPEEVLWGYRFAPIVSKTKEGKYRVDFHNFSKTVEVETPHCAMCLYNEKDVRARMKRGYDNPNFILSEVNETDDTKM
From the text: The human potassium channel ROMK2 ((Shuck, M. E. et al., 1994; Bock, J. H. et al., 1997); Sequence SEQ ID NO. 31 hROMK2) was subcloned into the yeast vector p423GPD and transformed into the triple mutant Δtrk1Δtrk2Δtok1.

[3] = system: triple mutant Δtrk1Δtrk2Δtok1 with p423GPD; test: Growth of triple mutant Δtrk1Δtrk2Δtok1 with blank vector p423GPD (YM194), OD 620 nm; assay type: cell-based, Saccharomyces cerevisiae; details: 2 mM RbCl; DPM-HIS 5 mM KCl, pH 6.5, 24 hours growth, starting OD 0.01
Protocol: The cell density was measured after 24 hours' growth (density of the starter culture: 0.01 OD620) via determination of the optical density at a wavelength of 620 nm. The values corresponded to the average of in each case 4 measurements±SD.

[4] = biological target: human potassium channel HERG1 (Homo sapiens, UniProt Q12809)
Chain of human potassium channel HERG1 (Q12809 whole entry): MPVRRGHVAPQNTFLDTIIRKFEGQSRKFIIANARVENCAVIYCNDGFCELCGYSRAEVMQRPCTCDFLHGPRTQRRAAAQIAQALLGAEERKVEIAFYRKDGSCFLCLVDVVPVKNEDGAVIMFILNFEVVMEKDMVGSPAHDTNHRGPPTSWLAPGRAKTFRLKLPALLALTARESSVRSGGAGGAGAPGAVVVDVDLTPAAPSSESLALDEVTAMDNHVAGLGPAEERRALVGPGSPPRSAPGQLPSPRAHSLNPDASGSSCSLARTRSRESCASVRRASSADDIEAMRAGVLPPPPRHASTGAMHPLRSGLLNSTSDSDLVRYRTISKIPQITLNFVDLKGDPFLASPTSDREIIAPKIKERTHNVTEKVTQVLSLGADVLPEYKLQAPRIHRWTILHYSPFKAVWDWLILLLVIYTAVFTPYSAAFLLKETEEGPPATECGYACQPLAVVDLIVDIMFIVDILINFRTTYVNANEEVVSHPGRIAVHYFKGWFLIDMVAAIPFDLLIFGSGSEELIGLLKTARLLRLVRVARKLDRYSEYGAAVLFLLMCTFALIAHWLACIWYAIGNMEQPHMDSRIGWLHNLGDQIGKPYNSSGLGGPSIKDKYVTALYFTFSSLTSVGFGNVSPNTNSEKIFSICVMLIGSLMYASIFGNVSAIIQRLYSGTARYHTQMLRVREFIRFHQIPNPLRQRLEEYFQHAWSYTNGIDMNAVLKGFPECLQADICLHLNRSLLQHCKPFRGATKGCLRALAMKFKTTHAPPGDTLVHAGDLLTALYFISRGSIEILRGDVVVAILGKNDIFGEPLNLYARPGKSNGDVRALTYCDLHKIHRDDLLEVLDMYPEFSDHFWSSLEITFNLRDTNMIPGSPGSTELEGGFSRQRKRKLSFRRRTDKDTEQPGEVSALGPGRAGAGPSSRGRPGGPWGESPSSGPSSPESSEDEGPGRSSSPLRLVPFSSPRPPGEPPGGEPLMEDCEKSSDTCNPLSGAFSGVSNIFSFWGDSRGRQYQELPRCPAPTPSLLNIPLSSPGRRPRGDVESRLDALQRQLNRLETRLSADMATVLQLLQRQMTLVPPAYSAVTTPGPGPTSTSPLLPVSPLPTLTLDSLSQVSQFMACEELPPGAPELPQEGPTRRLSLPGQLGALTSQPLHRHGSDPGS
Protocol: FIG. 7: Expression of the human potassium channel HERG1 in the triple mutant Δtrk1Δtrk2Δtok1 in DPM-HIS/-TRP 5 mM KCl medium in 96-well ELISA plates in the presence of 0.5 mM CsCl as activator.
(§1) The various inhibitors were employed at a final concentration of in each case 30 μM. To measure the cell density, a commercially available LacZ reporter system pYX232 by Ingenius (cat. No. MBV-032-10) was transformed into the yeast strains to be studied. Expression of the LacZ reporter gene was under the control of the constitutive Saccharomyces cerevisiae promotor TPI for the triose phosphate isomerase gene. The LacZ enzyme activity was measured via detecting the luminescence after 24 hours' growth (density of the starter culture: 0.01 OD620) using a commercially available assay system by TROPIX. The values correspond to the average of in each case 4 measurements±SD. The two different assays were carried out independently of each other on two different days.
FIG. 8: Expression of the human potassium channel HERG1 in the triple mutant Δtrk1Δtrk2Δtok1 in DPM-HIS 5 mM KCl medium in 96-well ELISA plates in the presence of 0.5 mM CsCl as activator.
The various inhibitors were employed at a final concentration of in each case 30 μM. The cell density was measured after 38 hours' growth (density of the starter culture: 0.03 OD620) via determination of the optical density at a wavelength of 620 nm. The values corresponded to the average of in each case 4 measurements±SD.
All growth assays in the triple mutant Δtrk1Δtrk2Δtok1 were carried out in growth medium DPM (defined potassium medium) at the pH and the potassium concentration stated in each case.
(§2) All substances, dissolved in DMSO, were employed in a final concentration of 30 μM. As a control, cells were measured with the same final concentration of 0.5% DMSO without substance, without DMSO addition or without substance.

[5] = system: Saccharomyces cerevisiae wild-type strain; test: Growth of wild-type strain in DPM medium with 5 mM or 80 mM KCl, OD 620 nm; assay type: cell-based; details: 30 μM
From the text: However, the present results could not exclude that the inhibitory effect found for these substances can possibly also be attributed to an inhibition of other proteins which are essential for the growth of yeast cells. […]

[6] = system: Saccharomyces cerevisiae wild-type strain; assay type: cell-based
Protocol: as §1, with “FIG. 9: Growth of the Saccharomyces cerevisiae wild-type strain in DPM-HIS/-TRP 5 mM KCl medium in 96-well ELISA plates in the presence of 0.5 mM CsCl. The various” for “The various”, “by TROPIX.” for “by TROPIX. The values correspond to the average of in each case 4 measurements±SD. The two different assays were carried out independently of each other on two different days.”
The values correspond to the average of in each case 4 measurements±SD. The two different assays were carried out independently of each other on two different days.
as §2

[7] = wild-type cells, DPM, 5 mM KCl, 24 hours growth, starting culture 0.01 OD
[8] = wild-type cells, DPM, 80 mM KCl, 24 hours growth, starting culture 0.01 OD
[9] = 30 μM, wild-type cells, DPM -HIS/-TRP, 0.5 mM CsCl, 24 hours growth, TROPIX kit, ASSAY 1
[10] = 30 μM, wild-type cells, DPM -HIS/-TRP, 0.5 mM CsCl, 24 hours growth, TROPIX kit, ASSAY 2

For `[Cl-].[Rb+]` [RbCl], the “complementation of the growth deficiency of the Δtrk1 Δtrk2 Δtok1 mutant by human Kv1.5 in the presence of activator” value [1] was “fully complementing”, the “256 (average growth of p423GPD-ROMK2 strain YM256, OD)” value ([2]; DPM-HIS 5 mM KCl, pH 6.5, 24 hours growth, starting OD 0.01) was 0.44 and the “Signal to noise ratio S/N” value ([2]; YM256 versus YM194, DPM-HIS 5 mM KCl, pH 6.5, 24 hours) was 8.46. For the same compound, the “194 (average growth of p423GPD strain YM194, OD)” value [3] was 0.048.

With `O=C1Cc2cc(CCN3CCN(c4nsc5ccccc45)CC3)c(Cl)cc2N1` [Ziprasidone, 5-(2-[4-(1,2-benzisothiazol-3-yl)piperazino]-ethyl)-6-chloro-1,3-dihydro-2H-indol-2-one] the “Exp. 1 (growth, OD620 nm)” value [4] was 0.006, the “Exp. 2 (growth, OD620 nm)” value [4] was 0.01 and the “Exp. 3 (growth, OD620 nm)” value [4] was 0.012. The “Exp. 4 (growth, OD620 nm)” value [4] was 0.015, the “Mean growth (OD620 nm)” value [4] was 0.01075 and the “complementation of the growth deficiency of the triple mutant by human HERG1 in the presence of the substance” value [4] was “can no longer complement”. The “effect on growth of yeast cells at higher potassium concentrations” value ([5]; 80 mM KCl, FIG. 10) was “inhibits the growth”, the “toxic effect on yeast cells (Saccharomyces cerevisiae)” value ([5]; growth medium containing 80 mM KCl, FIG. 10) was “has a toxic effect” and the “growth OD 620 nm, 5 mM KCl, measurement 1” value [5, 7] was 0.943. For the same compound, the “growth OD 620 nm, 5 mM KCl, measurement 2” value [5, 7] was 0.877, the “growth OD 620 nm, 5 mM KCl, measurement 3” value [5, 7] was 0.675 and the “growth OD 620 nm, 5 mM KCl, measurement 4” value [5, 7] was 0.701. The “5 mM KCl (average growth, OD 620 nm)” value ([5]; wild-type cells, DPM, 5 mM KCl, 24 hours growth, starting culture 0.01 OD, average of 4) was 0.799, the “growth OD 620 nm, 80 mM KCl, measurement 1” value [5, 8] was 0.836 and the “growth OD 620 nm, 80 mM KCl, measurement 2” value [5, 8] was 0.681. The “growth OD 620 nm, 80 mM KCl, measurement 3” value [5, 8] was 0.717, the “growth OD 620 nm, 80 mM KCl, measurement 4” value [5, 8] was 0.606 and the “80 mM KCl (average growth, OD 620 nm)” value ([5]; wild-type cells, DPM, 80 mM KCl, 24 hours growth, starting culture 0.01 OD, average of 4) was 0.7 and 0.71. For the same compound, the “specificity of inhibition of the human HERG1 channel (comparison with wild-type strain)” value [6] was “rather unspecific inhibitors”, the “Exp. 1 (LacZ luminescence), ASSAY 1” value [6, 9] was 55.32 and the “Exp. 2 (LacZ luminescence), ASSAY 1” value [6, 9] was 70.29. For the same compound, the “Exp. 3 (LacZ luminescence), ASSAY 1” value [6, 9] was 70.3, the “Exp. 4 (LacZ luminescence), ASSAY 1” value [6, 9] was 77.18 and the “Mean growth (LacZ luminescence), ASSAY 1” value ([6]; 30 μM, wild-type cells, DPM -HIS/-TRP, 0.5 mM CsCl, 24 hours growth, TROPIX kit, ASSAY 1, mean of 4) was 68.2725. The “Exp. 1 (LacZ luminescence), ASSAY 2” value [6, 10] was 62.52, the “Exp. 2 (LacZ luminescence), ASSAY 2” value [6, 10] was 44.3 and the “Exp. 3 (LacZ luminescence), ASSAY 2” value [6, 10] was 49.71. The “Exp. 4 (LacZ luminescence), ASSAY 2” value [6, 10] was 51.87 and the “Mean growth (LacZ luminescence), ASSAY 2” value ([6]; 30 μM, wild-type cells, DPM -HIS/-TRP, 0.5 mM CsCl, 24 hours growth, TROPIX kit, ASSAY 2, mean of 4) was 52.1.
